Series [1] is described as follows: mn = molality of the nth substance listed, in mol/kg. The note with it: 101 kPa, Liquid; for speed of sound: Frequency=1.999 MHz, Sing-around technique in a fixed-path interferometer; for mass density: Vibrating tube method.
For series [2] the following is noted: 101 kPa, Liquid, Frequency=1.999 MHz, Sing-around technique in a fixed-path interferometer.

Numbers after ± are expanded uncertainties.

4 molecules from the NIST ThermoML archive (doi:10.1016/j.tca.2013.08.002) can be followed below.

Broadly, the speed of sound is the propagation velocity of pressure waves in the medium. For orientation: mass density means the mass of a sample divided by its volume.

Consider `O` [water] + C[N+](C)(C)CC(=O)[O-], for which the speed of sound in series [1] (298.15 K, m2 = 0) stood at 1496.5 ± 10 m/s; in series [1] (308.15 K, m2 = 0), 1519.4 ± 10 m/s; in series [1] (313.15 K, m2 = 0) it was 1528.9 ± 10 m/s.

As for `O` [water], the results for the speed of sound in series [2] (298.15 K), in series [2] (308.15 K) and in series [2] (313.15 K) were 1496.5 ± 10 m/s, 1519.4 ± 10 m/s and 1528.9 ± 10 m/s, respectively.

`[Cl-].[Cl-].[Mg+2]` [magnesium chloride] + O: the speed of sound is on record as 1510.3 ± 10 m/s in series [1] (288.15 K, m1 = 0.3); 1518.6 ± 10 m/s in series [1] (293.15 K, m1 = 0.3); 1529.1 ± 10 m/s in series [1] (298.15 K, m1 = 0.3); 1540 ± 10 m/s in series [1] (303.15 K, m1 = 0.3); 1551.9 ± 10 m/s in series [1] (308.15 K, m1 = 0.3); 1563 ± 10 m/s in series [1] (313.15 K, m1 = 0.3). In addition, in series [1] (318.15 K, m1 = 0.3), the speed of sound worked out at 1573.4 ± 10 m/s. Further, the mass density turned out to be 1024.7 ± 2 kg/m3 in series [1] (288.15 K, m1 = 0.3); 1022.7 ± 2 kg/m3 in series [1] (293.15 K, m1 = 0.3); 1019.2 ± 2 kg/m3 in series [1] (303.15 K, m1 = 0.3); 1014.9 ± 2 kg/m3 in series [1] (313.15 K, m1 = 0.3); 1012.6 ± 2 kg/m3 in series [1] (318.15 K, m1 = 0.3).

Take `[Cl-].[K+]` [potassium chloride] + O: the speed of sound in series [1] (288.15 K, m1 = 0.3) came to 1482.9 ± 10 m/s; in series [1] (293.15 K, m1 = 0.3) it was 1500.8 ± 10 m/s; in series [1] (298.15 K, m1 = 0.3) it was 1518.4 ± 10 m/s; in series [1] (303.15 K, m1 = 0.3), 1537.8 ± 10 m/s; in series [1] (308.15 K, m1 = 0.3) it was 1548.6 ± 10 m/s; in series [1] (313.15 K, m1 = 0.3) it was 1558.8 ± 10 m/s. Moreover, the speed of sound in series [1] (318.15 K, m1 = 0.3) was determined as 1568 ± 10 m/s. In addition, the mass density in series [1] (288.15 K, m1 = 0.3) came to 1019.9 ± 2 kg/m3; in series [1] (293.15 K, m1 = 0.3), 1018.1 ± 2 kg/m3; in series [1] (298.15 K, m1 = 0.3) it was 1016.9 ± 2 kg/m3; in series [1] (303.15 K, m1 = 0.3) it was 1013.5 ± 2 kg/m3; in series [1] (308.15 K, m1 = 0.3) it was 1008.5 ± 2 kg/m3; in series [1] (313.15 K, m1 = 0.3) it was 1006.1 ± 2 kg/m3. Besides, in series [1] (318.15 K, m1 = 0.3), the mass density amounted to 1003.4 ± 2 kg/m3.
